The record followed here is patent US9474758B2, “Thienopyrimidinedione derivatives as TRPA1 modulators” (Glenmark Pharmaceuticals S.A., priority 2009, dated 2016).

Bounds are passed on as bounds.

In assay [1] the target is T1, Human TRPA1 expressing CHO cells (Homo sapiens, UniProt O75762).
T1 construct: expressed in transfected cells; host or cells: CHO cells (G-418 selection)
Put plainly: 45Calcium uptake assay, inhibition of AITC induced calcium uptake (human). In kind it is cell-based. The following applies: human TRPA1 CHO cells, AITC 30 μM; for inhibition at 1 µM: compound 1.0 μM, read-out: Percentage inhibition at 1.0 μM; for inhibition at 10 µM: compound 10.0 μM, read-out: Percentage inhibition at 10.0 μM; for IC50: read-out: Human IC50 value (Range). As for the experimental part:
(§1) Screening for TRPA1 Antagonist Using the ^45Calcium Uptake Assay:
(§2) The inhibition of TRPA1 receptor activation was measured as inhibition of allyl isothiocyanate (AITC) induced cellular uptake of radioactive calcium.
(§3) Test compounds were dissolved in 100% DMSO to prepare 10 mM stock and then diluted using plain medium with 0.1% BSA and 1.8 mM CaCl2 to get the desired concentration. The final concentration of DMSO in the reaction was 0.5% (v/v). […] Rat TRPA1 expressing CHO cells were grown in F-12 DMEM medium with 10% FBS, 1% penicillin-streptomycin solution, and 400 μg/ml of Zeocin. […] Cells were treated with the test compounds for 10 minutes followed by the addition of AITC at a final concentration of 30 μM (for human TRPA1) and/or 10 μM (for rat TRPA1) and 5 μCi/ml ^45Ca^+2 for 3 minutes. Cells were washed and lysed using a buffer containing 1% Triton X-100, 0.1% deoxycholate and 0.1% SDS. Radioactivity in the lysate was measured in a Packard TopCount after addition of liquid scintillant.
(§4) Concentration response curves were plotted as a % of maximal response obtained in the absence of test antagonist. IC50 values can be calculated from concentration response curve by nonlinear regression analysis using GraphPad PRISM software.

Assay [2] addresses T2, Rat TRPA1 expressing CHO cells (Rattus norvegicus, UniProt Q6RI86).
T2 construct: expressed in transfected cells; host or cells: CHO cells (Zeocin selection)
Nature of the assay: 45Calcium uptake assay, inhibition of AITC induced calcium uptake (rat). The conditions noted are these: rat TRPA1 CHO cells, AITC 10 μM; for inhibition at 1 µM: compound 1.0 μM, read-out: Percentage inhibition at 1.0 μM; for inhibition at 10 µM: compound 10.0 μM, read-out: Percentage inhibition at 10.0 μM; for IC50: read-out: Rat IC50 value (Range). In kind it is cell-based. As for the experimental part:
as §1, §2, §3, §4

T2 sequence (Q6RI86 whole entry): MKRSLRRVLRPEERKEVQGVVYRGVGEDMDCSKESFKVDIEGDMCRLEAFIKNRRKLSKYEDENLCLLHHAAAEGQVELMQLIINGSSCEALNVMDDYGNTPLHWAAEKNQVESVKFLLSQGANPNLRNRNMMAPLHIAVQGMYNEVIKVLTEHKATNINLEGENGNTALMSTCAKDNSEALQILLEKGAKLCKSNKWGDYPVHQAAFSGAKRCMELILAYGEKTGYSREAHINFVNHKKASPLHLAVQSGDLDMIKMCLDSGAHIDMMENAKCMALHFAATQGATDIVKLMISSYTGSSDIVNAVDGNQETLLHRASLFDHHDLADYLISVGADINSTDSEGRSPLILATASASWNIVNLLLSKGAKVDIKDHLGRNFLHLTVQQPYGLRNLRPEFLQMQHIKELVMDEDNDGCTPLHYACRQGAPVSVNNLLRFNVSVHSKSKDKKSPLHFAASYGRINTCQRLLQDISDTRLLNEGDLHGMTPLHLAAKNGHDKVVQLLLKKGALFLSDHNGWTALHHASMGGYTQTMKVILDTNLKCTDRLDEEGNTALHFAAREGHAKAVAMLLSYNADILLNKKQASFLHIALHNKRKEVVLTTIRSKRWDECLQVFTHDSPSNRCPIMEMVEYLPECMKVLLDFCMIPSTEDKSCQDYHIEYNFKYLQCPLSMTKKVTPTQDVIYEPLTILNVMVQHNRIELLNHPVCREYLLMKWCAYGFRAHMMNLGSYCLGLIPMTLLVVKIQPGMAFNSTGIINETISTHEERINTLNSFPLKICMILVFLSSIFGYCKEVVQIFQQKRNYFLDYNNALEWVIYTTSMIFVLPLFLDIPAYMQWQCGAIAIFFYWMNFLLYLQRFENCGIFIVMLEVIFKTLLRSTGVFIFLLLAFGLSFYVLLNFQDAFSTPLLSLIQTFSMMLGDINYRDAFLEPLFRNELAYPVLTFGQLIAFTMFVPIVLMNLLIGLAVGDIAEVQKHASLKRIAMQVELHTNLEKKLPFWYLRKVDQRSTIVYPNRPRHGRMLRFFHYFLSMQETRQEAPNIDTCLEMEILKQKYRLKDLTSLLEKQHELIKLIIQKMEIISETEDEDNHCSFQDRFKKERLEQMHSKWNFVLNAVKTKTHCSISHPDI
T1 sequence (O75762 whole entry): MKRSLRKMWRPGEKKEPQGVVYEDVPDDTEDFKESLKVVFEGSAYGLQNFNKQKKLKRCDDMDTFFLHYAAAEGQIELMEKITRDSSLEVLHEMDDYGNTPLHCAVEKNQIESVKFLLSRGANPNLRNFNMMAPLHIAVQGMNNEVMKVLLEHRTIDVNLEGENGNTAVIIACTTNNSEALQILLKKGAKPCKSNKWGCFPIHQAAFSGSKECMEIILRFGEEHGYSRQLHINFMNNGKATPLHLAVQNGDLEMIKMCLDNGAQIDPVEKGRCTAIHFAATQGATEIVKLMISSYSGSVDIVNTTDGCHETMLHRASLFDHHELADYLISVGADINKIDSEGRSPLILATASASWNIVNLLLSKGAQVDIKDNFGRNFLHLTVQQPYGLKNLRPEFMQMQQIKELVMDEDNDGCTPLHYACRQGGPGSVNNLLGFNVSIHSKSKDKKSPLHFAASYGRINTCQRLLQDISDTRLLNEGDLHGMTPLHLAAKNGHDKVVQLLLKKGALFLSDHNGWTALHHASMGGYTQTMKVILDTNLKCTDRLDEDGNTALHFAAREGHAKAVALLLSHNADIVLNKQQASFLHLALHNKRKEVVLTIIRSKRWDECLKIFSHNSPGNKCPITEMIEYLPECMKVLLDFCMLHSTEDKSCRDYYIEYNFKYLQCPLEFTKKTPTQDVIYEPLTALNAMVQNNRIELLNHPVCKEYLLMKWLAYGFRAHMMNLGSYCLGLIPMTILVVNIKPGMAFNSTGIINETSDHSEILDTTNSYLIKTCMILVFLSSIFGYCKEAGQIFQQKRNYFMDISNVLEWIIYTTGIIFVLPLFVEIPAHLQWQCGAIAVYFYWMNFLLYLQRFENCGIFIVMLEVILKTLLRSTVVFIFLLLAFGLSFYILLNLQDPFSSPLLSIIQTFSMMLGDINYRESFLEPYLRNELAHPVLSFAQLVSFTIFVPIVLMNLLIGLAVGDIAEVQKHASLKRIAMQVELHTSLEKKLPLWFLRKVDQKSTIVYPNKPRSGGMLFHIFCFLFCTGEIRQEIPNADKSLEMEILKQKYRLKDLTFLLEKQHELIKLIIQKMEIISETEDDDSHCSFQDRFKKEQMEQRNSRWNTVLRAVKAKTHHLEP

By inhibition is commonly meant the percentage by which the read-out fell short of the control. For orientation: IC50 means the concentration at which inhibition is half-maximal. For the compound `Cn1c(=O)c2c(CC(=O)Nc3ccn(-c4ccc(Br)cc4)n3)csc2n(C)c1=O` [Example 40, N-[1-(4-Bromophenyl)-1H-pyrazol-3-yl]-2-(1,3-dimethyl-2,4-dioxo-1,2,3,4-tetrahydrothieno[2,3-d]pyrimidin-5-yl)acetamide], in assay [1], the inhibition at 1 µM came out at 99.9%, the inhibition at 10 µM is 100% and the IC50 was less than 50 nM.

For the compound `CCc1sc2c(c1CC(=O)Nc1nc(-c3ccc(C(F)(F)F)c(F)c3)cs1)c(=O)n(C)c(=O)n2C` [Example 31, N-{4-[3-Fluoro-4-(trifluoromethyl)phenyl]-1,3-thiazol-2-yl}-2-(6-ethyl-1,3-dimethyl-2,4-dioxo-1,2,3,4-tetrahydrothieno[2,3-d]pyrimidin-5-yl)acetamide], in assay [1], the inhibition at 1 µM was determined as 98%, the inhibition at 10 µM was determined as 98.5% and the IC50 was less than 50 nM. Also, in assay [2], the inhibition at 1 µM worked out at 96.8%, the inhibition at 10 µM was 97.3% and the IC50 is 50 to 500 nM.

Take `Cn1c(=O)c2c(CC(=O)Nc3nc(-c4ccc(F)c(OC(F)(F)F)c4)cs3)csc2n(C)c1=O` [Example 10, 2-(1,3-Dimethyl-2,4-dioxo-1,2,3,4-tetrahydrothieno[2,3-d]pyrimidin-5-yl)-N-{4-[4-fluoro-3-(trifluoromethoxy)phenyl]-1,3-thiazol-2-yl}acetamide]: in assay [1], the inhibition at 1 µM came out at 98.2%, the inhibition at 10 µM came to 99.5% and the IC50 is less than 50 nM. In assay [2], the inhibition at 1 µM was 96.1%, the inhibition at 10 µM is 100% and the IC50 is 50 to 500 nM.

For the compound `Cn1c(=O)c2c(CC(=O)Nc3cc(-c4ccc(Br)cc4)on3)csc2n(C)c1=O` [Example 39, N-[5-(4-Bromophenyl)isoxazol-3-yl]-2-(1,3-dimethyl-2,4-dioxo-1,2,3,4-tetrahydrothieno[2,3-d]pyrimidin-5-yl)acetamide], in assay [1], the inhibition at 1 µM amounted to 47.8% and the inhibition at 10 µM came out at 78.6%.

For the compound `Cn1c(=O)c2c(CC(=O)Nc3nc(-c4cc(F)c(OC(F)F)c(F)c4)cs3)scc2n(C)c1=O` [Example 59, N-{4-[4-(Difluoromethoxy)-3,5-difluorophenyl]-1,3-thiazol-2-yl}-2-(1,3-dimethyl-2,4-dioxo-1,2,3,4-tetrahydrothieno[3,4-d]pyrimidin-5-yl)acetamide], in assay [1], the inhibition at 1 µM stood at 89.3%, the inhibition at 10 µM turned out to be 91.4% and the concentration for half-maximal inhibition (IC50) is less than 50 nM. In assay [2], the inhibition at 1 µM was 12.7% and the inhibition at 10 µM came to 87.6%.

As to `CC(C)Cc1ccc(-c2csc(NC(=O)Cc3scc4c3c(=O)n(C)c(=O)n4C)n2)cc1` [Example 44, 2-(1,3-Dimethyl-2,4-dioxo-1,2,3,4-tetrahydrothieno[3,4-d]pyrimidin-5-yl)-N-[4-(4-isobutylphenyl)-1,3-thiazol-2-yl]acetamide], in assay [1], the inhibition at 1 µM was determined as 91.4%, the inhibition at 10 µM was determined as 93.2% and the IC50 fell in the range of 50 to 500 nM. In addition, in assay [2], the inhibition at 1 µM was determined as 84.1% and the inhibition at 10 µM was 95.3%.

With `Cc1sc2c(c1CC(=O)Nc1nc(-c3ccc(Cl)c(Cl)c3)cs1)c(=O)n(C)c(=O)n2C` [Example 20, N-[4-(3,4-Dichlorophenyl)-1,3-thiazol-2-yl]-2-(1,3,6-trimethyl-2,4-dioxo-1,2,3,4-tetrahydrothieno[2,3-d]pyrimidin-5-yl)acetamide], in assay [1], the inhibition at 1 µM was determined as 99%, the inhibition at 10 µM came to 99.6% and the IC50 is less than 50 nM. Also, in assay [2], the inhibition at 1 µM amounted to 83.4%, the inhibition at 10 µM was 91.2% and the half-inhibitory concentration (IC50) fell in the range of 50 to 500 nM.

As to `Cn1c(=O)c2c(CC(=O)Nc3nc(-c4ccc(Cl)cc4)cs3)csc2n(C)c1=O` [Example 2, N-[4-(4-Chlorophenyl)-1,3-thiazol-2-yl]-2-(1,3-dimethyl-2,4-dioxo-1,2,3,4-tetrahydrothieno[2,3-d]pyrimidin-5-yl)acetamide], in assay [1], the inhibition at 1 µM came out at 99%, the inhibition at 10 µM amounted to 98.8% and the 50% inhibitory concentration (IC50) was in the range of 50 to 500 nM. In addition, in assay [2], the inhibition at 1 µM is 91.4% and the inhibition at 10 µM stood at 99.3%.

`Cn1c(=O)c2c(CC(=O)Nc3nc(-c4cc(F)cc(C(F)(F)F)c4)cs3)csc2n(C)c1=O` [Example 8, 2-(1,3-Dimethyl-2,4-dioxo-1,2,3,4-tetrahydrothieno[2,3-d]pyrimidin-5-yl)-N-{4-[3-fluoro-5-(trifluoromethyl)phenyl]-1,3-thiazol-2-yl}acetamide]: in assay [1], the inhibition at 1 µM turned out to be 89.8%, the inhibition at 10 µM was determined as 99.9% and the concentration for half-maximal inhibition (IC50) was less than 50 nM. In addition, in assay [2], the inhibition at 1 µM was 95.5%, the inhibition at 10 µM worked out at 100% and the IC50 fell in the range of 50 to 500 nM.

Take `Cn1c(=O)c2c(CC(=O)Nc3nc(-c4cccc(OC(F)(F)F)c4)cs3)csc2n(C)c1=O` [Example 3, 2-(1,3-Dimethyl-2,4-dioxo-1,2,3,4-tetrahydrothieno[2,3-d]pyrimidin-5-yl)-N-{4-[3-(trifluoromethoxy)phenyl]-1,3-thiazol-2-yl}acetamide]: in assay [1], the inhibition at 1 µM amounted to 89%, the inhibition at 10 µM stood at 98.5% and the IC50 fell in the range of 50 to 500 nM. Besides, in assay [2], the inhibition at 1 µM stood at 82.4% and the inhibition at 10 µM came to 99.7%.

Take `Cn1c(=O)c2c(CC(=O)Nc3cc(-c4ccc(Cl)cc4)no3)csc2n(C)c1=O` [Example 38, N-[3-(4-Chlorophenyl)isoxazol-5-yl]-2-(1,3-dimethyl-2,4-dioxo-1,2,3,4-tetrahydrothieno[2,3-d]pyrimidin-5-yl)acetamide]: in assay [1], the inhibition at 1 µM came out at 25% and the inhibition at 10 µM was determined as 87.9%.

Regarding `Cn1c(=O)c2c(CC(=O)Nc3nc(-c4ccc(C(F)(F)F)c(F)c4F)cs3)csc2n(C)c1=O` [Example 15, N-{4-[2,3-Difluoro-4-(trifluoromethyl)phenyl]-1,3-thiazol-2-yl}-2-(1,3-dimethyl-2,4-dioxo-1,2,3,4-tetrahydrothieno[2,3-d]pyrimidin-5-yl)acetamide], in assay [1], the inhibition at 1 µM amounted to 60% and the inhibition at 10 µM was found to be 96.8%.

As for `Cn1c(=O)c2c(CC(=O)Nc3nnc(-c4ccc(Br)cc4)s3)csc2n(C)c1=O` [Example 42, N-[5-(4-Bromophenyl)-1,3,4-thiadiazol-2-yl]-2-(1,3-dimethyl-2,4-dioxo-1,2,3,4-tetrahydrothieno[2,3-d]pyrimidin-5-yl)acetamide], in assay [1], the inhibition at 1 µM was determined as 9.74% and the inhibition at 10 µM amounted to 74.6%.

Regarding `Cn1c(=O)c2c(CC(=O)Nc3nc(C(F)(F)F)cs3)csc2n(C)c1=O` [Example 1, 2-(1,3-Dimethyl-2,4-dioxo-1,2,3,4-tetrahydrothieno[2,3-d]pyrimidin-5-yl)-N-[4-(trifluoromethyl)-1,3-thiazol-2-yl]acetamide], in assay [1], the inhibition at 1 µM turned out to be 13.2% and the inhibition at 10 µM worked out at 46%.

Consider `Cc1sc2c(c1CC(=O)Nc1nc(-c3ccc(C(F)(F)F)c(F)c3)c[nH]1)c(=O)n(C)c(=O)n2C` [Example 29, N-{4-[3-Fluoro-4-(trifluoromethyl)phenyl]-1H-imidazol-2-yl}-2-(1,3,6-trimethyl-2,4-dioxo-1,2,3,4-tetrahydrothieno[2,3-d]pyrimidin-5-yl)acetamide], for which, in assay [1], the inhibition at 1 µM was found to be 91.7%, the inhibition at 10 µM turned out to be 98% and the IC50 lay within 50 to 500 nM.

As for `Cc1sc2c(c1CC(=O)Nc1nc(-c3cccc(OC(F)(F)F)c3)c[nH]1)c(=O)n(C)c(=O)n2C` [Example 28, N-[4-(3-Trifluoromethoxyphenyl)-1H-imidazol-2-yl]-2-(1,3,6-trimethyl-2,4-dioxo-1,2,3,4-tetrahydrothieno[2,3-d]pyrimidin-5-yl)acetamide], in assay [1], the inhibition at 1 µM came to 10% and the inhibition at 10 µM came out at 46.8%.

`Cn1c(=O)c2c(CC(=O)Nc3nccc(-c4ccc(Br)cc4)n3)csc2n(C)c1=O` [Example 43, N-[4-(4-Bromophenyl)pyrimidin-2-yl]-2-(1,3-dimethyl-2,4-dioxo-1,2,3,4-tetrahydrothieno[2,3-d]pyrimidin-5-yl)acetamide]: in assay [1], the inhibition at 1 µM was determined as 30.5% and the inhibition at 10 µM was 4.42%.

For `CC(C)Cc1ccc(-c2csc(NC(=O)Cc3csc4c3c(=O)n(C)c(=O)n4C)n2)cc1` [Example 4, 2-(1,3-Dimethyl-2,4-dioxo-1,2,3,4-tetrahydrothieno[2,3-d]pyrimidin-5-yl)-N-[4-(4-isobutylphenyl)-1,3-thiazol-2-yl]acetamide], in assay [1], the inhibition at 1 µM was found to be 29.1% and the inhibition at 10 µM was determined as 99.5%.
